Experimental data published in PubChem BioAssay AID1745844 (Carcinogenic Potency Database (CPDB), 2022).
The source made the active and inactive calls. The rule behind the calls is not given here.

Test system: rodent lifetime carcinogenesis bioassay, tumor incidence TD50
Assay: carcinogenic potency in animals, long-term in vivo studies, CPDB compilation (AID 1745844)

## Nc1ccc([N+](=O)[O-])cc1O
mouse, strain B6C3F1, females, by gavage, site: any site (literature study), lesion: several types, types named in the paper, dosed 103 weeks, study length 104 weeks
  TD50: 5760 mg/kg/day (inactive)
mouse, strain B6C3F1, females, by gavage, site: lung, lesion: alveolar/bronchiolar adenoma + alveolar/bronchiolar carcinoma, dosed 103 weeks, study length 104 weeks
  TD50: 807000 mg/kg/day
mouse, strain B6C3F1, males, by gavage, site: any site (literature study), lesion: several types, types named in the paper, dosed 103 weeks, study length 104 weeks
  carcinogen call: negative (inactive)
rat, strain Fischer 344, females, by gavage, site: any site (literature study), lesion: several types, types named in the paper, dosed 103 weeks, study length 104 weeks
  carcinogen call: negative (inactive)
rat, strain Fischer 344, males, by gavage, site: adrenal medulla, lesion: pheochromocytoma + pheochromocytoma, malignant, dosed 103 weeks, study length 104 weeks
  TD50: 101 mg/kg/day
rat, strain Fischer 344, males, by gavage, site: any site (literature study), lesion: several types, types named in the paper, dosed 103 weeks, study length 104 weeks
  TD50: 33.6 mg/kg/day
rat, strain Fischer 344, males, by gavage, site: liver, lesion: hepatocellular adenoma + hepatocellular carcinoma + neoplastic nodule, dosed 103 weeks, study length 104 weeks
  TD50: 1560 mg/kg/day
rat, strain Fischer 344, males, by gavage, site: pancreas, lesion: acinar-cell adenoma, dosed 103 weeks, study length 104 weeks
  TD50: 111 mg/kg/day
rat, strain Fischer 344, males, by gavage, site: pancreas, lesion: acinar-cell carcinoma + acinar-cell adenoma, dosed 103 weeks, study length 104 weeks
  TD50: 107 mg/kg/day
rat, strain Fischer 344, males, by gavage, site: pancreatic islets, lesion: islet-cell carcinoma, dosed 103 weeks, study length 104 weeks
  TD50: 393 mg/kg/day
rat, strain Fischer 344, males, by gavage, site: preputial gland, lesion: adenoma, NOS + carcinoma, NOS, dosed 103 weeks, study length 104 weeks
  TD50: 392 mg/kg/day
rat, strain Fischer 344, males, by gavage, site: preputial gland, lesion: carcinoma, NOS, dosed 103 weeks, study length 104 weeks
  TD50: 562 mg/kg/day
rat, strain Fischer 344, males, by gavage, site: testis, lesion: interstitial-cell tumor, dosed 103 weeks, study length 104 weeks
  TD50: 28.6 mg/kg/day

## CCCCCCN(N=O)C(N)=O
rat, strain Fischer 344, females, by gavage, site: forestomach, lesion: one or several types, types not named, dosed 50 weeks, study length 104 weeks
  TD50: 0.848 mg/kg/day
rat, strain Fischer 344, females, by gavage, site: lung, lesion: several types, types named in the paper, dosed 50 weeks, study length 104 weeks
  TD50: 2.06 mg/kg/day
rat, strain Fischer 344, females, by gavage, site: mammary gland, lesion: adenocarcinoma, dosed 50 weeks, study length 104 weeks
  TD50: 1.73 mg/kg/day
rat, strain Fischer 344, females, by gavage, site: uterus, lesion: several types, types named in the paper, dosed 50 weeks, study length 104 weeks
  TD50: 0.579 mg/kg/day
rat, strain Fischer 344, males, by gavage, site: all sites, lesion: mesothelioma, dosed 50 weeks, study length 104 weeks
  TD50: 0.745 mg/kg/day
rat, strain Fischer 344, males, by gavage, site: colon, lesion: one or several types, types not named, dosed 50 weeks, study length 104 weeks
  TD50: 2.27 mg/kg/day
rat, strain Fischer 344, males, by gavage, site: forestomach, lesion: one or several types, types not named, dosed 50 weeks, study length 104 weeks
  carcinogen call: positive
rat, strain Fischer 344, males, by gavage, site: lung, lesion: several types, types named in the paper, dosed 50 weeks, study length 104 weeks
  carcinogen call: positive

## O=CCCCC=O
mouse, strain B6C3F1, females, inhaled, site: any site (literature study), lesion: several types, types named in the paper, dosed 104 weeks, study length 105 weeks
  TD50: 3.08 mg/kg/day (inactive)
mouse, strain B6C3F1, females, inhaled, site: liver, lesion: one or several types, types not named, dosed 52 weeks, study length 52 weeks
  carcinogen call: negative (inactive)
mouse, strain B6C3F1, females, inhaled, site: liver, lesion: one or several types, types not named, dosed 78 weeks, study length 78 weeks
  carcinogen call: negative (inactive)
mouse, strain B6C3F1, females, inhaled, site: lung, lesion: adenocarcinoma, dosed 52 weeks, study length 52 weeks
  TD50: 0.54 mg/kg/day (inactive)
mouse, strain B6C3F1, females, inhaled, site: lung, lesion: adenocarcinoma, dosed 78 weeks, study length 78 weeks
  TD50: 0.347 mg/kg/day (inactive)
mouse, strain B6C3F1, females, inhaled, site: lung, lesion: alveolar/bronchiolar adenoma + alveolar/bronchiolar carcinoma, dosed 104 weeks, study length 105 weeks
  TD50: 17.4 mg/kg/day
mouse, strain B6C3F1, males, inhaled, site: any site (literature study), lesion: several types, types named in the paper, dosed 104 weeks, study length 104 weeks
  carcinogen call: negative (inactive)
mouse, strain B6C3F1, males, inhaled, site: liver, lesion: hepatocellular carcinoma, dosed 52 weeks, study length 52 weeks
  carcinogen call: negative (inactive)
mouse, strain B6C3F1, males, inhaled, site: liver, lesion: hepatocellular carcinoma, dosed 78 weeks, study length 78 weeks
  carcinogen call: negative (inactive)
mouse, strain B6C3F1, males, inhaled, site: lung, lesion: adenocarcinoma, dosed 52 weeks, study length 52 weeks
  carcinogen call: negative (inactive)
mouse, strain B6C3F1, males, inhaled, site: lung, lesion: adenocarcinoma, dosed 78 weeks, study length 78 weeks
  TD50: 1.14 mg/kg/day (inactive)
rat, strain Fischer 344, females, inhaled, site: any site (literature study), lesion: several types, types named in the paper, dosed 104 weeks, study length 104 weeks
  TD50: 0.125 mg/kg/day (inactive)
rat, strain Fischer 344, males, inhaled, site: any site (literature study), lesion: several types, types named in the paper, dosed 104 weeks, study length 104 weeks
  TD50: 0.239 mg/kg/day (inactive)

## S=C(SSSSSSC(=S)N1CCCCC1)N1CCCCC1
mouse, strain B6AKF1, females, oral dosing, site: any site (literature study), lesion: several types, types named in the paper, dosed 76 weeks, study length 76 weeks
  TD50: 120 mg/kg/day (inactive)
mouse, strain B6AKF1, females, oral dosing, site: liver, lesion: hepatoma, dosed 76 weeks, study length 76 weeks
  carcinogen call: negative (inactive)
mouse, strain B6AKF1, females, oral dosing, site: lung, lesion: adenoma, dosed 76 weeks, study length 76 weeks
  carcinogen call: negative (inactive)
mouse, strain B6AKF1, males, oral dosing, site: any site (literature study), lesion: several types, types named in the paper, dosed 76 weeks, study length 76 weeks
  carcinogen call: negative (inactive)
mouse, strain B6AKF1, males, oral dosing, site: liver, lesion: hepatoma, dosed 76 weeks, study length 76 weeks
  carcinogen call: negative (inactive)
mouse, strain B6AKF1, males, oral dosing, site: lung, lesion: adenoma, dosed 76 weeks, study length 76 weeks
  carcinogen call: negative (inactive)
mouse, strain B6C3F1, females, oral dosing, site: any site (literature study), lesion: several types, types named in the paper, dosed 76 weeks, study length 76 weeks
  TD50: 83.1 mg/kg/day (inactive)
mouse, strain B6C3F1, females, oral dosing, site: liver, lesion: hepatoma, dosed 76 weeks, study length 76 weeks
  carcinogen call: negative (inactive)
mouse, strain B6C3F1, females, oral dosing, site: lung, lesion: adenoma, dosed 76 weeks, study length 76 weeks
  TD50: 83.1 mg/kg/day (inactive)
mouse, strain B6C3F1, males, oral dosing, site: any site (literature study), lesion: several types, types named in the paper, dosed 76 weeks, study length 76 weeks
  TD50: 52.5 mg/kg/day (inactive)
mouse, strain B6C3F1, males, oral dosing, site: liver, lesion: hepatoma, dosed 76 weeks, study length 76 weeks
  TD50: 113 mg/kg/day (inactive)
mouse, strain B6C3F1, males, oral dosing, site: lung, lesion: adenoma, dosed 76 weeks, study length 76 weeks
  TD50: 113 mg/kg/day (inactive)
